How the values were obtained:
TGF-β1 [1] = test: Rat NASH model, RT-PCR of hepatic TGF-β1 mRNA expression; assay type: in vivo; conditions: OLETF rats, PS 8 weeks, obeticholic acid 30 mg/kg/day and/or losartan 30 mg/kg/day oral
Protocol: (§1) Using the liver sections from the rats in the various groups obtained in working example 1, an immunohistochemical study by immunohistological staining with α-smooth muscle actin (α-SMA) antibody and a quantitative analysis of transforming growth factor-β1 TGF-β1) and collagen (α1(I) procollagen) mRNA expression were conducted. α-SMA is known to be an indicator (marker) of activation of hepatic stellate cells (HSCs) (also known as hepatic star cells). Moreover, activation of hepatic stellate cells (HSC), overproduction of TGF-β1 (a fibrosis-promoting cytokine) accompanying said activation, and overproduction of extracellular matrix components such as collagen are thought to play a central role in the mechanism of progressive hepatic fibrosis in NASH. For this reason, mRNA expression of TGF-β1 and collagen (α1(I) procollagen) can be a fibrosis indicator (marker).
(§2) A comparative study was conducted by analyzing TGF-β1 and collagen (α1(I) procollagen) mRNA expression in the livers of the rates of the various groups of working example 1 by means of the quantitative real-time polymerase chain reaction (RT-PCR). Quantitation of the mRNA expression levels by RT-PCR was conducted on a StepOne Plus™ system (manufactured by Applied Biosystems®) using the fluorescent dye SYBR® Green

TGF-β1 [2] = test: HHSC fibrosis marker gene expression, RT-PCR, TGF-β1; assay type: cell-based, human; conditions: AT-II 10^-6M + LPS 10^-5M; ARB 10^-6M, obeticholic acid 5×10^-6M; 24 hours; monotherapy vs G2AL, combination vs monotherapy groups
Protocol: (§3) The various combined effects of obeticholic acid and three types of ARBs (losartan, valsartan, and candesartan) were confirmed in an in vitro cell system experiment. Specifically, using human hepatic stellate cells (HHSC), which are implicated in the main mechanism of progression of hepatic fibrosis in NASH, the effects of administration of obeticholic acid in combination with the three ARBs of inhibiting HHSC proliferation capacity and the expression of fibrosis markers were evaluated according to the following method. Human hepatic stellate cells (HHSC) (also referred to as human hepatic star cells) Obeticholic acid (obtained from Intercept Pharmaceuticals, Inc. via Sumitomo Dainippon Pharma Co., Ltd.) was used as an FXR agonist, and commercial losartan (potassium salt of losartan; referred to in this working example simply as “losartan”) and valsartan and candesartan ([…] of candesartan; referred to in this working example simply as “candesartan”) were used as ARBs. Angiotensin II (AT-II) and/or lipopolysaccharide (LPS) were used (both AT1-mediated AT-II signalling and TLR4-mediated LPS signaling are known to play major roles in HSC activation and the progression of hepatic fibrosis). With respect to the effect of inhibiting fibrosis marker gene expression, collagen production capacity and TGF-β production capacity were evaluated by the RT-PCR method. 1) HHSCs were inoculated onto a 6-well plate in the amount of 300,000 cells/2 ml and allowed to proliferate in 1% FBS DMEM medium for 24 hours. 2) After 24 hours, the cells were divided into the following 7 groups and transferred to culture medium after adding the following drugs and/or reagents. Losartan was used as an ARB. Negative control group (G1): No drugs added (control) […] AT-II (10^-6M) Positive control group L […]): LPS (10^-5M) Positive control group AL ([…]): (10^-6M)+LPS (10^-5M) Obeticholic acid administration (G3): AT-II (10^-6M)+LPS (10^-5M)+obeticholic acid (5×10^-6M) ARB administration (G4): AT-II (10^-6M)+LPS (10^-5M)+ARB (10^-6M) Obeticholic acid+ARB combined administration (G5): AT-II (10^-6M)+LPS (10^-5M)+obeticholic acid (5×10^-6M)+ARB (10^-6M) […] Evaluations were conducted in the five groups G1, G2AL, G3, G4, and G5.

[3] = tested on: C57Bl/6J mice fed a CDAHFD; test: Murine NASH model (CDAHFD-fed mice), serum ALT activity; assay type: in vivo, mouse; conditions: obeticholic acid 10 mg/kg/day and/or losartan 30 mg/kg/day oral, 3 weeks from 6 weeks of diet
Text: According to the NASH/NAFLD Practice Guideline of 2015 (Japan Society of Hepatology, NASH/NAFLD Practice Guideline 2015. Tokyo: Bunkodo; 2015.), the important factors in NASH diagnostic screening are an abdominal ultrasound diagnosis of fatty liver and abnormal ALT (alanine aminotransferase) values. The diagnosis of NASH is confirmed by liver biopsy, with control of obesity/hypertension/lipid abnormalities being one of the basic criteria, and continuing high values for transaminases (aminotransferases) are also significant. […] Aliment Pharmacol Ther. 2013 Jul. 38 (2): 134-43). Based on the above findings, as ALT is considered an important prognostic factor in the progression of NASH, treatment to improve ALT levels is expected to alleviate the pathology of NASH. For this reason, evaluation was conducted using the animal model of reduction of ALT below, and the effects of monotherapy and combined administration of an FXR agonist (obeticholic acid) and an ARB (losartan) were studied.
The same method was used as in working example 7.
Male C57Bl/6J mice (n=50) […]
In order to evaluate serum alanine aminotransferase (ALT) activity, blood samples were taken from mice that had completed the above-mentioned testing, and the serum was separated. Using a pharmaceutical product for in vitro diagnosis, ALT activity in the serum samples was enzymatically measured.

α1(I) procollagen [4] = test: HHSC fibrosis marker gene expression, RT-PCR, α1(I) procollagen; assay type: cell-based, human; conditions: AT-II 10^-6M + LPS 10^-5M; ARB 10^-6M, obeticholic acid 5×10^-6M; 24 hours; monotherapy vs G2AL, combination vs monotherapy groups
Protocol: as §3

α1(I) procollagen [5] = test: Rat NASH model, RT-PCR of hepatic α1(I) procollagen mRNA expression; assay type: in vivo; conditions: OLETF rats, PS 8 weeks, obeticholic acid 30 mg/kg/day and/or losartan 30 mg/kg/day oral
Protocol: as §1, §2

SMILES | TGF-β1 mRNA expression in liver compared to the positive control group (TGF-β1 [1]) | TGF-β1 mRNA expression induced by AT-II and LPS in HHSC (TGF-β1 [2]) | improvement in serum ALT activity versus the positive control group [3] | α1(I)-procollagen mRNA expression induced by AT-II and LPS in HHSC (α1(I) procollagen [4]) | α1(I) procollagen mRNA expression in liver compared to the positive control group (α1(I) procollagen [5])
CCCCc1nc(Cl)c(CO)n1Cc1ccc(-c2ccccc2-c2nn[nH]n2)cc1 [losartan] | moderate decreasing tendency | statistically significant inhibition | only an improving trend | statistically significant inhibition | moderate decreasing tendency
CC[C@H]1[C@@H](O)[C@@H]2[C@H](CC[C@]3(C)[C@@H]([C@H](C)CCC(=O)O)CC[C@@H]23)[C@@]2(C)CC[C@@H](O)C[C@@H]12 [obeticholic acid, 3α,7α-dihydroxy-6α-ethyl-5β-cholan-24-oic acid] | moderate decreasing tendency | statistically significant inhibition | only an improving trend | statistically significant inhibition | moderate decreasing tendency
